Some test systems named below: 786-0 renal; HCC-2998 colon; HOP-92 NSCLC; MOLT-4 leukemia; NCI-H460 lung; OVCAR-4 ovarian; RPMI-8226 leukemia; SF-268 CNS; SNB-75 CNS; SR leukemia; SW-620 colon; UACC-62 melanoma; UO-31 renal; OVCAR-8 ovarian; RXF 393 renal; SF-295 CNS; NCI/ADR-RES ovarian; MDA-MB-231 breast; MDA-MB-435.
What all share (experiment): inhibition of tumour cell growth, NCI panel, 48 h

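Assay format: 96-well plates, 48-hour exposure. TGI: total growth inhibition.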

As to `COc1ccc(/C=c2\sc3n(c2=O)C(N)=C(C#N)C(c2ccc(OC)cc2)C=3c2nc3ccccc3[nH]2)cc1` (stereo not drawn), the TGI was above 100 µM in the assay with 786-0 renal; 64.3 µM in the assay with HCC-2998 colon; 70 µM with HOP-92 NSCLC; above 100 µM in the assay with MOLT-4 leukemia; 40.9 µM with NCI-H460 lung; above 100 µM with OVCAR-4 ovarian. The TGI is above 100 µM in the assay with RPMI-8226 leukemia; above 100 µM in the assay on SF-268 CNS; above 100 µM in the assay with SNB-75 CNS; above 100 µM with SR leukemia; 83.6 µM with SW-620 colon; above 100 µM in the assay on UACC-62 melanoma. The same compound came in with a TGI in the assay on UO-31 renal above 100 µM.

For the compound `CCOC(=O)C1=C(C)N(c2ccc(C)cc2)C2=C(C(=O)N(c3ccccc3)C2c2ccccc2)C1c1ccccc1` (stereo not drawn), the TGI in the assay on 786-0 renal, with HCC-2998 colon, with MOLT-4 leukemia, in the assay with NCI-H460 lung, in the assay on OVCAR-4 ovarian and with OVCAR-8 ovarian was above 25 µM each time. In addition, the TGI with RPMI-8226 leukemia, in the assay with RXF 393 renal, in the assay on SF-268 CNS, with SF-295 CNS, with SNB-75 CNS and in the assay with SR leukemia was above 25 µM each time. Further, the TGI in the assay on SW-620 colon, with UACC-62 melanoma and in the assay with UO-31 renal was above 25 µM in each case.

Regarding `CCC1CN2CCc3c([nH]c4ccccc34)C2C[C@@H]1CC(=O)N(C)C` (stereo partly drawn), the TGI in the assay with 786-0 renal, with HCC-2998 colon, in the assay with HOP-92 NSCLC, in the assay with MOLT-4 leukemia, with NCI-H460 lung and with OVCAR-4 ovarian was above 100 µM throughout. The TGI in the assay on OVCAR-8 ovarian was above 100 µM; in the assay on RXF 393 renal, above 100 µM; in the assay on SF-268 CNS, above 100 µM; in the assay with SF-295 CNS, above 100 µM; in the assay on SNB-75 CNS, 92.6 µM; in the assay on SR leukemia it was above 100 µM. Further, the TGI in the assay on SW-620 colon and with UO-31 renal was above 100 µM each time.

As to `N#C/C(=C\c1cc(Cl)cc(Cl)c1)c1ccccn1`, the TGI with 786-0 renal, with HCC-2998 colon, with MOLT-4 leukemia, in the assay with NCI-H460 lung, in the assay with NCI/ADR-RES ovarian and with OVCAR-4 ovarian was above 100 µM each time. The TGI is above 100 µM in the assay with OVCAR-8 ovarian; above 100 µM in the assay with RPMI-8226 leukemia; 47.2 µM in the assay with RXF 393 renal; above 100 µM with SF-268 CNS; above 100 µM in the assay on SF-295 CNS; 36 µM in the assay on SNB-75 CNS. Besides, the TGI in the assay with SR leukemia, with SW-620 colon, in the assay with UACC-62 melanoma and in the assay on UO-31 renal was above 100 µM in each case.

With `CN1CCC(CN2c3ccccc3Sc3ccccc32)CC1`, the TGI in the assay with 786-0 renal amounted to 27.3 µM; in the assay with HCC-2998 colon, 25.6 µM; in the assay on HOP-92 NSCLC, 17.6 µM; in the assay on MOLT-4 leukemia it was 32.9 µM; in the assay with NCI-H460 lung, 28.5 µM; in the assay with OVCAR-4 ovarian it was 30.5 µM. The TGI in the assay with OVCAR-8 ovarian worked out at 31.2 µM; in the assay with RPMI-8226 leukemia, 30.7 µM; in the assay on RXF 393 renal it was 15.1 µM; with SF-268 CNS, 29 µM; in the assay with SF-295 CNS, 29.3 µM; in the assay with SR leukemia, 33.3 µM. Further, the TGI in the assay with SW-620 colon worked out at 28.6 µM; in the assay with UACC-62 melanoma it was 28.2 µM; in the assay with UO-31 renal, 21.8 µM.

Turning to `N=c1c2c(-c3ccccc3)c[nH]c2ncn1N`, the TGI with 786-0 renal, in the assay on HCC-2998 colon, in the assay with HOP-92 NSCLC, with MDA-MB-231 breast, with MDA-MB-435 and in the assay on MOLT-4 leukemia was above 100 µM throughout. Moreover, the TGI in the assay on NCI/ADR-RES ovarian, with OVCAR-4 ovarian, in the assay with OVCAR-8 ovarian, with RPMI-8226 leukemia, with SF-295 CNS and in the assay with SNB-75 CNS was above 100 µM throughout. Besides, the TGI in the assay with SW-620 colon, with UACC-62 melanoma and with UO-31 renal was above 100 µM in each case.

For the compound `Cc1ccc(S(=O)(=O)OCC23CCC(CC2)C2CC23)cc1` (stereo not drawn), the TGI in the assay with 786-0 renal was above 100 µM; in the assay on HCC-2998 colon, above 100 µM; with HOP-92 NSCLC it was 87.5 µM; in the assay on MOLT-4 leukemia, above 100 µM; in the assay on NCI-H460 lung it was above 100 µM; in the assay with OVCAR-4 ovarian, above 100 µM. In addition, the TGI is above 100 µM with OVCAR-8 ovarian; 87.8 µM in the assay on RPMI-8226 leukemia; above 100 µM with SF-268 CNS; above 100 µM in the assay on SF-295 CNS; 40.6 µM with SNB-75 CNS; above 100 µM with SR leukemia. The TGI in the assay with SW-620 colon, in the assay with UACC-62 melanoma and in the assay with UO-31 renal was above 100 µM in each case.

The values above are taken from PubChem BioAssay (NCI).
